{"source": "patent US9176064B2", "about": "“Bisubstrate fluorescent probes for protein kinase CK2” (University of Tartu, priority 2012, dated 2015)", "key": {"[1]": {"biological_target": "T1, catalytic subunit of CK2 (CK2α) (Homo sapiens, UniProt P68400)", "T1 sequence (P68400 1-335 limits assumed)": "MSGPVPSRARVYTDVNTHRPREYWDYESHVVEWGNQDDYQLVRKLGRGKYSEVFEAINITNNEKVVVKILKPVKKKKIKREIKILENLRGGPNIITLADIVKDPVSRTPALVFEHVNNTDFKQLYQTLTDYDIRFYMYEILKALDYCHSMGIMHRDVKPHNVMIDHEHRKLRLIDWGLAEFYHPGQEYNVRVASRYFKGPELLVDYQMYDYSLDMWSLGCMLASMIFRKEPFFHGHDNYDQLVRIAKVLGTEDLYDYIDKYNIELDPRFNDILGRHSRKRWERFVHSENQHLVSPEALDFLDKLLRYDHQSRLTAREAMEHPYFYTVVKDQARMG", "assay": "Titration of fluorescent probe with CK2α (fluorescence anisotropy)", "format": "binding", "protocol": "The binding of the fluorescent probe of formula VI to the catalytic subunit of protein kinase CK2 (CK2α) was studied at 0.2 nM concentration of the probe and 2-fold dilutions of CK2α in a buffer containing 50 mM HEPES (pH 7.5), 150 mM NaCl, 5 mM DTT, 0.1 mM EDTA and 0.005% tween 20 in 20 μl volumes in 384-well microplate. […] The change in fluorescence anisotropy vs kinase concentration was plotted and KD value was calculated by the application of nonlinear regression analysis to the relationship: A=Af(1−X1)+AbX1, where X1=QX2/[1+X2(Q−1)], where X2={P+KD+kE0−[(P+KD+kE0)^2−4PkE0]^1/2}/2P where A is measured anisotropy, Af is the anisotropy of free probe, Ab is the anisotropy of the probe-CK2α complex, Q is the ratio of fluorescence quantum yield of the probe-CK2α complex and the free probe, P is the concentration of the fluorescent probe, E0 is the nominal concentration of the kinase, k is the fraction of active kinase in enzyme preparation and KD is the dissociation constant of the probe-CK2α complex. Q value of 1.1 was calculated by dividing the total fluorescence intensity of the complex with the total fluorescence intensity of the free probe."}, "[2]": {"biological_target": "holoenzyme of protein kinase CK2 (CK2α + CK2β) (Homo sapiens, UniProt P68400)", "sequence (P68400 whole entry)": "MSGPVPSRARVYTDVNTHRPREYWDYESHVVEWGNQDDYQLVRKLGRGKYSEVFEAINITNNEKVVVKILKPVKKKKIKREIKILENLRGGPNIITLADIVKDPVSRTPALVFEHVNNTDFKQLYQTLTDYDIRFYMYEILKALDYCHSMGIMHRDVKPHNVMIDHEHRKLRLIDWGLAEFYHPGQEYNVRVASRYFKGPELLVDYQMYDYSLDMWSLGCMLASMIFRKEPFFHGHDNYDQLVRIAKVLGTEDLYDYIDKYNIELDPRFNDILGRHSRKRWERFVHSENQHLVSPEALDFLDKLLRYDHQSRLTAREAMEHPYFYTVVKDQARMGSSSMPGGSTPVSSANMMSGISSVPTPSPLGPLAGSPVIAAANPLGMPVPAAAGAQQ", "sequence (P67870 whole entry partner)": "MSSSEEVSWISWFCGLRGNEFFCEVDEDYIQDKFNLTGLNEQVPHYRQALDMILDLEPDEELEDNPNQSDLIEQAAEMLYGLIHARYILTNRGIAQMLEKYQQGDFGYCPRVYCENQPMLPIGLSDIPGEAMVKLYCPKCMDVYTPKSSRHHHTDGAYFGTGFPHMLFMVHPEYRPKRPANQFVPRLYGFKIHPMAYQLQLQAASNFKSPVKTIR", "assay": "biochemical", "protocol": "The binding of the fluorescent probe to the holoenzyme of protein kinase CK2 was studied at 0.2 nM concentration of the probe, 2-fold dilutions of CK2α and 100 nM regulatory subunit of CK2 (CK2β) in a buffer containing 50 mM HEPES (pH 7.5), 150 mM NaCl, 5 mM DTT, 0.1 mM EDTA and 0.005% tween 20 in 20 μl volumes in 384-well microplate. […] The change in fluorescence anisotropy vs kinase concentration was plotted and KD-value was calculated by the application of nonlinear regression analysis to the relationship: A=Af(1−X1)+AbX1, where X1=QX2/[1+X2(Q−1)], where X2={P+KD+kE0−[(P+KD+kE0)^2−4PkE0]^1/2}/2P where A is measured anisotropy, Af is the anisotropy of free probe, Ab is the anisotropy of the probe-CK2 holoenzyme complex, Q is the ratio of fluorescence quantum yield of the probe-CK2 holoenzyme complex and the free probe, P is the concentration of the fluorescent probe, E0 is the nominal concentration of CK2α, k is the fraction of active kinase in enzyme preparation and KD is the dissociation constant of the probe-CK2 holoenzyme complex."}, "[3]": {"biological_target": "T1, catalytic subunit of CK2 (CK2α)", "assay": "Competition experiment: displacement of fluorescent probe VI from CK2α", "format": "binding", "conditions": "for Kd: calculated from I50 and KD of the probe"}, "[4]": {"conditions": "fluorescence anisotropy, HEPES pH 7.5, 30° C., probe X also by time gated luminescence, read-out: KD of probe-CK2α complex"}, "[5]": {"conditions": "CK2α 2 nM, fluorescent probe VI 3 nM"}, "[6]": {"conditions": "CK2α 0.8 nM, fluorescent probe VI 0.5 nM"}}, "note": "Where a SMILES comes first, the peptide text is derived from it. [ ]: non-standard residue; d: D form. The star is where a group is joined. X2 = CN(C)c1ccc2c(-c3ccc(C(=O)*)cc3C(=O)[O-])c3ccc(=[N+](C)C)cc-3oc2c1; X1 = O=C(CCCCCCCn1cnc2c(Br)c(Br)c(Br)c(Br)c21)*", "data": [{"molecule": "CCN1/C(=C/C=C/C=C/C2=[N+](CC)c3ccc(S(=O)(=O)[O-])cc3C2(C)C)C(C)(CCCC(=O)NCCCC[C@H](NC(=O)[C@H](CC(=O)O)NC(=O)[C@H](CC(=O)O)NC(=O)[C@H](CC(=O)O)NC(=O)[C@H](CC(=O)O)NC(=O)[C@H](CC(=O)O)NC(=O)[C@H](CC(=O)O)NC(=O)CCCCCCCCOc2nc3cc(C(=O)O)ccc3c3cnccc23)C(=O)O)c2cc(S(=O)(=O)O)ccc21", "note": "(stereo partly shown) [probe IX]", "values": [{"measurement": "Kd", "setting": "[1]; [4]", "value": 0.02, "unit": "nM"}]}, {"molecule": "CCN1/C(=C/C=C/C=C/C2=[N+](CC)c3ccc(S(=O)(=O)[O-])cc3C2(C)C)C(C)(CCCC(=O)NCCCC[C@H](NC(=O)[C@H](CC(=O)O)NC(=O)[C@H](CC(=O)O)NC(=O)[C@H](CC(=O)O)NC(=O)[C@H](CC(=O)O)NC(=O)[C@H](CC(=O)O)NC(=O)[C@@H](CC(=O)O)NC(=O)CCCCCCCn2cnc3c(I)c(I)c(I)c(I)c32)C(=O)O)c2cc(S(=O)(=O)O)ccc21", "note": "(stereo partly shown) [probe VIII]", "values": [{"measurement": "Kd", "setting": "[1]; [4]", "value": 0.4, "unit": "nM"}]}, {"molecule": "CN(C)c1ccc2c(-c3ccc(C(=O)NCCCC[C@H](NC(=O)[C@H](CC(=O)O)NC(=O)[C@H](CC(=O)O)NC(=O)[C@H](CC(=O)O)NC(=O)[C@H](CC(=O)O)NC(=O)[C@H](CC(=O)O)NC(=O)[C@@H](CC(=O)O)NC(=O)CCCCCCCn4cnc5c(Br)c(Br)c(Br)c(Br)c54)C(=O)O)cc3C(=O)[O-])c3ccc(=[N+](C)C)cc-3oc2c1", "note": "[probe VII] (X1-[dD]DDDDDK(X2)-OH)", "values": [{"measurement": "Kd", "setting": "[1]; [4]", "value": 0.4, "unit": "nM"}]}, {"molecule": "CCN1/C(=C/C=C/C=C/C2=[N+](CC)c3ccc(S(=O)(=O)[O-])cc3C2(C)C)C(C)(CCCC(=O)NCCCC[C@H](NC(=O)[C@H](CC(=O)O)NC(=O)[C@H](CC(=O)O)NC(=O)[C@H](CC(=O)O)NC(=O)[C@H](CC(=O)O)NC(=O)[C@H](CC(=O)O)NC(=O)[C@@H](CC(=O)O)NC(=O)CCCCCCCn2cnc3c(Br)c(Br)c(Br)c(Br)c32)C(=O)O)c2cc(S(=O)(=O)O)ccc21", "note": "(stereo partly shown) [probe VI]", "values": [{"measurement": "Kd", "setting": "[1]; [4]", "value": 0.4, "unit": "nM"}, {"measurement": "Kd", "setting": "[2]", "value": 0.2, "unit": "nM"}]}, {"molecule": "CCN1/C(=C/C=C/C=C/C2=[N+](CC)c3ccc(S(=O)(=O)[O-])cc3C2(C)C)C(C)(CCCC(=O)NCCCC[C@H](NC(=O)[C@H](CC(=O)O)NC(=O)[C@H](CC(=O)O)NC(=O)[C@H](CC(=O)O)NC(=O)[C@H](CC(=O)O)NC(=O)[C@H](CC(=O)O)NC(=O)[C@@H](CC(=O)O)NC(=O)CCCCCCCn2ccc3ccc4n[se]nc4c32)C(=O)O)c2cc(S(=O)(=O)O)ccc21", "note": "(stereo partly shown) [probe X]", "values": [{"measurement": "Kd", "setting": "[1]", "value": 10, "unit": "nM"}]}, {"molecule": "TBBI-AcOH", "values": [{"measurement": "IC50", "setting": "[3]; [5]", "value": 11500, "unit": "nM"}, {"measurement": "Kd", "setting": "[3]; [5]", "value": 1500, "unit": "nM"}]}, {"molecule": "TIBI-AcOH", "values": [{"measurement": "IC50", "setting": "[3]; [6]", "value": 390, "unit": "nM"}, {"measurement": "Kd", "setting": "[3]; [6]", "value": 122, "unit": "nM"}]}]}
